Assay type in all cases: cell-based, human
The subject of assay [1] is NHEKs. The experiment in a line: U1 RNA binding to the cell at 4 °C (immunocytofluorescence). The note with it: 1 hour, peptide 2.5 μM. An excerpt:
(§1) Figure 2 Structure and cell binding of cathelicidin and dsRNA. (a) Structures of LL37, LL34, and LL34(I20P) bound to dsRNA were solved using SAXS. SAXS data is plotted as the scattering intensity I(q) vs. the momentum transfer vector q. LL34 (blue) and LL34(I20P) (green) condense dsRNA into square lattices with first peak positions of q10 = 0.167 Å^−1 and 0.170 Å^−1, respectively. Higher order Bragg reflections due to scattering of the square lattice of LL34 and LL34(I20P) are labeled for both complexes. In comparison, LL37 (magenta) condenses dsRNA into a columnar lattice with short-ranged order, with a first peak position of q1 = 0.172 Å^−1. (b) Linear fits of Bragg peak positions indicate that LL34-dsRNA (blue) and LL34(I20P)-dsRNA (green) complexes have inter-dsRNA spacings of 3.76 nm and 3.70 nm, respectively. Each reflection corresponding to the peaks in a for LL34 and LL34(I20P) are labeled. Close overlap of the two linear fits indicate that LL34-dsRNA and LL34(I20P)-dsRNA complexes have similar unit cell structures and inter-dsRNA spacings. End-on views along the dsRNA long-axis of the columnar (c) LL37-dsRNA and (d) LL34-dsRNA or LL34(I20P)-dsRNA complexes are shown. In (d), LL34-dsRNA and LL34(I20P)-dsRNA both form square columnar structures with similar unit cell architectures. […]

Assay [2] concerns NHEKs. Description: U1 RNA co-association with early endosome (EEA1) in NHEKs. Particulars: 37 °C, 4 hours.
Text: as §1

For assay [3], the system named is NHEKs. Description: Immunoblotting of TBK1-AKT-IRF3 pathway and p38 MAPK phosphorylation. The note with it: peptide 2.5 μM 10 minutes, then U1 RNA 2.5 μg/mL 30 minutes or 2 hours.
Text: as §1, with “labeled.” for “labeled. Close overlap of the two linear fits indicate that LL34-dsRNA and LL34(I20P)-dsRNA complexes have similar unit cell structures and inter-dsRNA spacings. End-on views along the dsRNA long-axis of the columnar (c) LL37-dsRNA and (d) LL34-dsRNA or LL34(I20P)-dsRNA complexes are shown. In (d), LL34-dsRNA and LL34(I20P)-dsRNA both form square columnar structures with similar unit cell architectures.”
NHEKs were lysed in a denaturing lysis buffer containing 20 mM HEPES pH 7.4, 250 mM NaCl, 2 mM EDTA, and 1% SDS supplemented with completed proteinase inhibitor cocktail as well as 50 mM sodium floride, 5mM N-ethylmaleimide, 100 μM hemin chloride to maximally preserve protein post-translational modifications as described previously. […] Protein concentrations were measured by BCA protein assay kit (Thermofisher). […]
(In general: In western blotting, separated proteins are transferred to a membrane and probed.)

Where no end group is shown, it is not given here.

As for LL37, the “capacity to enable U1 RNA to bind to the cell” value in assay [1] is “showed the capacity to enable U1 RNA to bind to the cell”. Also, in assay [2], the “co-association of U1 RNA with the early endosome” value is listed as “induced partial co-association with the early endosome”. Also, the “phosphorylation in the TBK1-AKT-IRF3 pathway and p38 MAPK” value in assay [3] is “increased”.

In the case of “LLGDFFRKSKEKIGKEFKRIVQRIKDFLRNLVPR [LL34]”, the “capacity to enable U1 RNA to bind to the cell” value in assay [1] was “showed the capacity to enable U1 RNA to bind to the cell”. Moreover, the “co-association of U1 RNA with the early endosome” value in assay [2] is given as “induced partial co-association with the early endosome”. Also, the “phosphorylation in the TBK1-AKT-IRF3 pathway and p38 MAPK” value in assay [3] is recorded as “increased”.

Values taken from PMC5838106, “Cathelicidin promotes inflammation by enabling binding of self-RNA to cell surface scavenger receptors” (Scientific Reports, 2018).
